# Source: the supplement of paper PMC10307832
# Compound: O=C(/C=C/c1ccccc1)NC(NC(=S)Nc1cccc2cccnc12)C(Cl)(Cl)Cl [Salubrinal] + C[C@]1(O)C[C@@H](c2nc(-c3ccc4ccc(-c5ccccc5)nc4c3)c3c(N)nccn32)C1 [Linsitinib] (partner 1 µM)
# Assay: relative viability (nuclei count vs DMSO), 5 days (fraction); higher = more cells survive
# Settings: first compound 0.08 µM
# In short: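 For relative viability, nuclei counts in treated wells were divided by those in vehicle wells. Lung cancer cell lines had been pin-tool dosed in 1536-well plates the day after seeding and cultured for 5 days, then fixed and stained in one step (final 0.05% Triton X-100, 1% formaldehyde, 1 ug/ml Hoechst) and imaged at 4×. Doses were one drug alone or a fixed anchor-drug dose plus five library-drug doses (not always all listed) in √10 steps, and values are duplicate-plate medians.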
row,Cell Line,relative viability
1,NCI-H1703,0.515
2,NCI-H1993,0.757
3,SW 1573,0.903
4,NCI-H838,1.25
5,LCLC-103H,1.14
6,NCI-H520,1.16
7,NCI-H2126,0.716
8,EMC-BAC-2,0.901
9,NCI-H2085,1.03
10,Calu-6,0.983
11,HCC-366,1.01
12,NCI-H1666,0.78
13,NCI-H596,1.07
14,LK-2,0.558
15,NCI-H2087,1.01
16,NCI-H358,0.77
17,H3255,0.982
18,COR-L23,1.16
19,COR-L 105,1.04
20,IA-LM,0.256
21,LOU-NH91,1.02
22,NCI-H1793,1.1
23,NCI-H2405,1.07
24,HOP-62,1.07
25,HCC-44,0.761
26,A549,0.709
27,HCC-78,0.59
28,NCI-H1299,0.964
29,NCI-H1563,1.1
30,ABC-1,0.802

# Same assay, conditions: first compound 0.253 µM
row,Cell Line,relative viability
1,NCI-H727,0.33
2,EBC-1,0.844
3,NCI-H1703,0.997
4,NCI-H1993,0.722
5,SW 1573,0.759
6,NCI-H838,0.722
7,LCLC-103H,1
8,NCI-H520,0.688
9,NCI-H2126,0.707
10,EMC-BAC-2,0.682
11,NCI-H2085,0.754
12,Calu-6,0.842
13,HCC-366,0.408
14,NCI-H1666,0.777
15,NCI-H596,0.936
16,LK-2,0.521

row,Cell Line,relative viability
1,NCI-H2087,0.942
2,NCI-H358,0.693
3,H3255,0.905
4,COR-L23,0.676
5,COR-L 105,1.03
6,IA-LM,0.472
7,LOU-NH91,0.949
8,NCI-H1793,0.798
9,NCI-H2405,1
10,HOP-62,0.918
11,HCC-44,0.754
12,A549,0.568
13,HCC-78,0.558
14,NCI-H1299,0.876
15,NCI-H1563,1.26
16,ABC-1,0.753

# Same assay, conditions: first compound 0.8 µM
row,Cell Line,relative viability
1,NCI-H727,0.323
2,EBC-1,1.03
3,NCI-H1703,0.712
4,NCI-H1993,0.775
5,SW 1573,0.718
6,NCI-H838,1.08
7,LCLC-103H,1.02
8,NCI-H520,1.25
9,NCI-H2126,0.748
10,EMC-BAC-2,0.856
11,NCI-H2085,0.896
12,Calu-6,1.08
13,HCC-366,0.883
14,NCI-H1666,0.869
15,NCI-H596,1.17
16,LK-2,0.762

row,Cell Line,relative viability
1,NCI-H2087,0.98
2,NCI-H358,0.76
3,H3255,1.2
4,COR-L23,1.24
5,COR-L 105,0.737
6,IA-LM,0.704
7,LOU-NH91,0.996
8,NCI-H1793,1.04
9,NCI-H2405,0.861
10,HOP-62,1.1
11,HCC-44,0.731
12,A549,0.669
13,HCC-78,0.796
14,NCI-H1299,1.09
15,NCI-H1563,1.14
16,ABC-1,0.76

# Same assay, conditions: first compound 2.53 µM
row,Cell Line,relative viability
1,NCI-H727,0.326
2,EBC-1,0.873
3,NCI-H1703,0.685
4,NCI-H1993,0.805
5,SW 1573,0.792
6,NCI-H838,1.13
7,LCLC-103H,1.22
8,NCI-H520,1.12
9,NCI-H2126,0.693
10,EMC-BAC-2,0.77
11,NCI-H2085,0.787
12,Calu-6,0.928
13,HCC-366,0.671
14,NCI-H1666,0.735
15,NCI-H596,1.1
16,LK-2,0.757

row,Cell Line,relative viability
1,NCI-H2087,0.782
2,NCI-H358,0.773
3,H3255,1.04
4,COR-L23,1
5,COR-L 105,0.953
6,IA-LM,0.519
7,LOU-NH91,0.955
8,NCI-H1793,0.795
9,NCI-H2405,0.889
10,HOP-62,0.977
11,HCC-44,0.703
12,A549,0.558
13,HCC-78,0.481
14,NCI-H1299,1
15,NCI-H1563,1.21
16,ABC-1,0.952

# Same assay, conditions: first compound 8 µM
row,Cell Line,relative viability
1,NCI-H727,0.323
2,EBC-1,0.897
3,NCI-H1703,0.644
4,NCI-H1993,0.816
5,SW 1573,0.844
6,NCI-H838,0.98
7,LCLC-103H,1.01
8,NCI-H520,1.17
9,NCI-H2126,0.689
10,EMC-BAC-2,0.858
11,NCI-H2085,0.868
12,Calu-6,0.992
13,HCC-366,0.57
14,NCI-H1666,0.797
15,NCI-H596,0.903
16,LK-2,0.723

row,Cell Line,relative viability
1,NCI-H2087,1.02
2,NCI-H358,0.637
3,H3255,0.974
4,COR-L23,0.888
5,COR-L 105,0.776
6,IA-LM,1.09
7,LOU-NH91,0.93
8,NCI-H1793,0.636
9,NCI-H2405,0.843
10,HOP-62,0.998
11,HCC-44,0.65
12,A549,0.54
13,HCC-78,0.508
14,NCI-H1299,0.96
15,NCI-H1563,1.12
16,ABC-1,0.781
